Results on 26 compounds are retold here after patent US9637469B2, “Pyridine derivative” (Teijin Pharma Limited, priority 2012, dated 2017).

What is called IC50 is the concentration that gives 50% inhibition.

For the first experiment, the target named is T1, human URAT1 (Homo sapiens, UniProt Q96S37).
T1 construct: Full-length cDNA of human URAT1 (hURAT1)
T1 sequence (Q96S37 1-553): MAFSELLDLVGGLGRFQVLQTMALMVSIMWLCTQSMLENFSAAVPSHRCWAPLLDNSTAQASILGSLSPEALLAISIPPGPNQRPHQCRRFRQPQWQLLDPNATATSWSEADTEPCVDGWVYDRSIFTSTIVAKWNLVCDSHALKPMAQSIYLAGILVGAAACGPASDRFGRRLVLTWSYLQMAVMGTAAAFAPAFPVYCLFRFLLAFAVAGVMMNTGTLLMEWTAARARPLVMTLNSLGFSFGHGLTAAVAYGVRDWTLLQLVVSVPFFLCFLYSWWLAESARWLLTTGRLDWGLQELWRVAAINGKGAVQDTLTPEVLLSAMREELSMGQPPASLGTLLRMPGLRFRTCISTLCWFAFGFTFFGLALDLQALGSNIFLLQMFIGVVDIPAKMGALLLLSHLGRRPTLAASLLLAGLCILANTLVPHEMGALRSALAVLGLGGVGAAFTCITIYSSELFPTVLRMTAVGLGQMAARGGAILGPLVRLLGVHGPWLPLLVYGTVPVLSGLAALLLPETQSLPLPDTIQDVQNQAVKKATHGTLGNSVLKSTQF
The experiment can be described thus: Test for inhibition of uric acid transport using human URAT1-expressing cells.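 Note: three stars up to 0.2 µM two stars 0.2-2 µM one star 2-20 µM.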 The format is cell-based. As to conditions: HEK 293 cells expressing human URAT1; 14C-labeled uric acid 25 μM; uptake 37° C. for 5 min. How it is done: (1) Preparation of the Test Compound
The test compound was dissolved in DMSO (produced by Sigma) to a concentration of 20 mM and was subsequently used by diluting to desired concentrations.
(2) Test for Inhibition of Uric Acid Transport Using Human URAT1-Expressing Cells;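 note: three stars up to 0.2 µM two stars 0.2-2 µM one star 2-20 µM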
Full-length cDNA of human URAT1 (hURAT1) (produced by OriGene Technologies, Inc., NCBI Reference Sequence: NM 144585) was subcloned into an expression vector, pCMV6-Kan/Neo (produced by OriGene Technologies, Inc.), and hURAT1 gene was transfected into human embryonic kidney-derived cells (HEK 293 cells) by liposome method using Lipofectamine 2000 (produced by Invitrogen Corporation), whereupon HEK 293 cells expressing human URAT1 gene were screened by its Geneticin resistance. By a method similar to the following method, functional expression of human URAT1 gene was confirmed by using transport of ^14C-labeled uric acid into the cells as an index.
The HEK 293 cells expressing human URAT1 were seeded in a 24-well cell culture dish to a density of 3×10^5 cells/mL/well and were cultured in Dulbecco's modified Eagle's medium (D-MEM medium) containing 10% fetal bovine serum at 37° C. for 2 days. Thereafter, the following test for inhibition of uric acid transport was performed.
After the medium was removed by aspiration from each well, the medium was replaced with a solution obtained by substituting NaCl in Hank's Balanced Salt Solution (HBSS) with Na gluconate (hereinafter, HBSS/Na-gluconate) and the cells were preincubated at 37° C. for about 10 minutes. HBSS/Na-gluconate was removed by aspiration and a ^14C-uric acid solution that was warmed at 37° C. in advance containing various concentrations of the Example compound described in (1) and a radioactive ligand (^14C-labeled uric acid; final concentration 25 μM) was added and an uptake reaction was carried out by incubating at 37° C. for 5 min. After the incubation, ^14C-labeled uric acid solution was removed by aspiration and the cells were washed three times with ice-cold HBSS. The HEK 293 cells expressing human URAT1 were lysed in 0.2 mol/L aqueous NaOH (hereafter, the cell sample) and the cell samples were collected. The cell sample and a liquid scintillation liquid, ULTIMA GOLD (produced by PerkinElmer, Inc.) were mixed and the radioactivity was measured by a liquid scintillation counter (Beckman Coulter, Inc.).
The uric acid transport rate of the Example compound at each concentration (% of control uptake) was calculated relative to the radioactivity (radioactivity in human URAT1 expressing HEK 293 cells without addition of the Example compound (DMSO addition)) showing URAT1-specific uric acid transport as 100%, and the concentration (IC50) of the Example compound at which the uric acid transport rate is inhibited by 50% was determined. In addition, the symbols (*, **, and ***) in the table represent the following inhibitory activity values: • IC50≦_ 0.2 μM: *** • 0.2 μM<IC50≦2 μM: ** • 2 μM<IC50≦20 μM: *
For `O=C(O)c1c(C(F)(F)F)nc(-c2cccnc2)n1Cc1csc2cccc(Cl)c12` [Compound A27, 1-((4-chlorobenzo[b]thiophen-3-yl)methyl)-2-(pyridin-3-yl)-4-(trifluoromethyl)-1H-imidazole-5-carboxylic acid], the “Inhibitory Activity (IC50 of uric acid transport inhibition)” value (“Inhibitory Activity” below) was “* *”. `O=C(O)c1ccc(-c2cncc(Cl)c2)n1Cc1cc(Cl)ccc1Cl` [Compound B17, 2-(5-chloropyridin-3-yl)-1-(2,5-dichlorobenzyl)-1H-pyrrole-5-carboxylic acid]: the “Inhibitory Activity” value is “* * *”.

As to `Cc1cncc(-c2ccc(C(=O)NS(=O)(=O)C3CC3)n2Cc2cc(Cl)ccc2Cl)c1` [Compound B32, N-(cyclopropylsulfonyl)-1-(2,5-dichlorobenzyl)-2-(5-methylpyridin-3-yl)-1H-pyrrole-5-carboxamide], the “Inhibitory Activity” value was “* * *”.

Consider `CC(C)c1nc(-c2cccnc2)n(Cc2csc3cccc(Br)c23)c1C(=O)O` [Compound A38, 1-((4-bromobenzo[b]thiophen-3-yl)methyl)-4-isopropyl-2-(pyridin-3-yl)-1H-imidazole-5-carboxylic acid], for which the “Inhibitory Activity” value is recorded as “* * *”. The same measure, in the same setting: the result for `O=C(O)c1c(Cn2cccn2)nc(-c2cncc(Cl)c2)n1Cc1cc(Cl)ccc1Cl` [Compound A200, 4-((1H-pyrazol-1-yl)methyl)-2-(5-chloropyridin-3-yl)-1-(2,5-dichlorobenzyl)-1H-imidazole-5-carboxylic acid] reads “* * *”. With `O=C(O)c1c(C2CC2)nc(-c2cccnc2)n1Cc1cccc2ccccc12` [Compound A11, 4-cyclopropyl-1-(napthalen-1-ylmethyl)-2-(pyridin-3-yl)-1H-imidazole-5-carboxylic acid], the “Inhibitory Activity” value is “* *”. Consider `Cc1nc(-c2cncc(Cl)c2)n(Cc2cc(C(F)(F)F)ccc2C(F)(F)F)c1C(=O)O` [Compound A173, 1-(2,5-bis(trifluoromethyl)benzyl)-2-(5-chloropyridin-3-yl)-4-methyl-1H-imidazole-5-carboxylic acid], for which the “Inhibitory Activity” value was “* * *”. With `O=C(O)c1c(OCC(F)(F)F)nc(-c2cccnc2)n1Cc1cc(Cl)ccc1Cl` [Compound A98, 1-(2,5-dichlorobenzyl)-2-(pyridin-3-yl)-4-(2,2,2-trifluoroethoxy)-1H-imidazole-5-carboxylic acid], the “Inhibitory Activity” value is reported as “* * *”. For the compound `Cc1ccc(Cn2c(C(=O)O)ccc2-c2cccnc2)c2ccccc12` [Compound B2, 1-((4-methylnaphthalen-1-yl)methyl)-2-(pyridin-3-yl)-1H-pyrrole-5-carboxylic acid], the “Inhibitory Activity” value is listed as “* * *”. The same measure, in the same setting: with `CCc1cncc(-c2nc(C)c(C(=O)O)n2Cc2cc(Cl)ccc2Cl)c1` [Compound A181, 1-(2,5-dichlorobenzyl)-2-(5-ethylpyridin-3-yl)-4-methyl-1H-imidazole-5-carboxylic acid] the entry was “* * *”; with `O=C(O)c1ccc(-c2cncc(Cl)c2)n1Cc1csc2cccc(Cl)c12` [Compound B18, 1-((4-chlorobenzo[b]thiophen-3-yl)methyl)-2-(5-chloropyridin-3-yl)-1H-pyrrole-5-carboxylic acid], “* * *”; with `O=C(O)c1c(C2CC2)nc(-c2cccnc2)n1Cc1csc2cccc(Cl)c12` [Compound A33, 1-((4-chlorobenzo[b]thiophen-3-yl)methyl)-4-cyclopropyl-2-(pyridin-3-yl)-1H-imidazole-5-carboxylic acid], “* *”. As for `Cc1nc(-c2cncc(Cl)c2)n(Cc2csc3cccc(Cl)c23)c1C(=O)O` [Compound A142, 1-((4-chlorobenzo[b]thiophen-3-yl)methyl)-2-(5-chloropyridin-3-yl)-4-methyl-1H-imidazole-5-carboxylic acid], the “Inhibitory Activity” value was “* * *”. As for `CC(C)c1nc(-c2cncc(Cl)c2)n(Cc2cc(Cl)ccc2Cl)c1C(=O)O` [Compound A146, 2-(5-chloropyridin-3-yl)-1-(2,5-dichlorobenzyl)-4-isopropyl-1H-imidazole-5-carboxylic acid], the “Inhibitory Activity” value is reported as “* * *”. For the compound `Cc1nc(-c2cncc(F)c2)n(Cc2csc3ccccc23)c1C(=O)O` [Compound A133, 1-(benzo[b]thiophen-3-ylmethyl)-2-(5-fluoropyridin-3-yl)-4-methyl-1H-imidazole-5-carboxylic acid], the “Inhibitory Activity” value was “* *”.

Regarding `CC(C)c1nc(-c2cncc(Cl)c2)n(Cc2cccc3ccccc23)c1C(=O)O` [Compound A144, 2-(5-chloropyridin-3-yl)-4-isopropyl-1-(naphthalen-1-ylmethyl)-1H-imidazole-5-carboxylic acid], the “Inhibitory Activity” value is “* * *”. With `Cc1nc(-c2cccnc2)n(Cc2ccccc2Br)c1C(=O)O` [Compound A54, 1-(2-bromobenzyl)-4-methyl-2-(pyridin-3-yl)-1H-imidazole-5-carboxylic acid], the “Inhibitory Activity” value is reported as “* *”. For the compound `Cc1cncc(Oc2nc(C)c(C(=O)O)n2Cc2cc(Cl)ccc2Cl)c1` [Compound A255, 1-(2,5-dichlorobenzyl)-4-methyl-2-((5-methylpyridin-3-yl)oxy)-1H-imidazole-5-carboxylic acid], the “Inhibitory Activity” value was “* * *”.

As to `Cc1nc(-c2cncc(OCC(C)C)c2)n(Cc2cc(Cl)ccc2Cl)c1C(=O)O` [Compound A188, 1-(2,5-dichlorobenzyl)-2-(5-isobutoxypyridin-3-yl)-4-methyl-1H-imidazole-5-carboxylic acid], the “Inhibitory Activity” value is “* * *”. Take `O=C(O)c1c(CN2CCCCC2)nc(-c2cncc(Cl)c2)n1Cc1cc(Cl)ccc1Cl` [Compound A195, 2-(5-chloropyridin-3-yl)-1-(2,5-dichlorobenzyl)-4-(piperidin-1-ylmethyl)-1H-imidazole-5-carboxylic acid]: the “Inhibitory Activity” value was “* * *”. On to `O=C(O)c1ccc(-c2cncc(Cl)c2)n1Cc1cccc2ccsc12` [Compound B23, 1-(benzo[b]thiophen-7-ylmethyl)-2-(5-chloropyridin-3-yl)-1H-pyrrole-5-carboxylic acid], for which the “Inhibitory Activity” value was “* * *”.

Staying with this experiment, now noted: HEK 293 cells expressing human URAT1; 14C-labeled uric acid 25 μM; uptake 37° C. for 5 min; read-out: Inhibitory Activity (IC50 of uric acid transport inhibition).
Take `Cc1nc(-c2cccnc2)n(Cc2cccc3ccsc23)c1C(=O)NS(C)(=O)=O` [Compound A115]: the IC50 is 2 to 20 µM. On to `Cc1cncc(-c2nc(C)c(C(=O)O)n2Cc2cccc3ccccc23)c1` [Compound A124], for which the IC50 lay in the range of 2 to 20 µM. With `Cc1nc(-c2cccnc2)n(Cc2ccccc2F)c1C(=O)O` [Compound A48], the IC50 was in the range of 2 to 20 µM. Same read-out and setting: with `Cc1nc(-c2ccc(N(C)C)nc2)n(Cc2cc(Cl)ccc2Cl)c1C(=O)O` [Compound A163] the figure was 2 to 20 µM; with `O=C(O)c1c(CN2CCC(O)CC2)nc(-c2cncc(Cl)c2)n1Cc1cc(Cl)ccc1Cl` [Compound A198], 2 to 20 µM.
